Series [1] can be described thus: Particle size distribution by laser diffraction (Malvern Mastersizer 2000). It counts as physicochemical. The note with it: no unit in Table 4; d values in micrometers, volume distribution. Here is the method:
The particle size distribution of 8-(1,3-Dimethyl-1H-pyrazol-4-yl)-1-(Sa)-(3-fluoro-5-methoxy-pyridin-4-yl)-7-methoxy-3-methyl-1,3-dihydro-imidazo[4,5-c]quinolin-2-one is measured by laser diffraction on a Malvern Mastersizer 2000 (wet method using Hydro 2000S; sample amount of 100 mg dispersed in 5 ml silicone oil; stirrer speed 2000 rpm, no sonication, measuring time of 7.5 s; obscuration of 10-15%). The d values refer to the particle size distribution in micrometers […] whereby the dl 0 value refers to the particle diameter in micrometers at which 10 percent of the volume distribution of the particles are smaller than such value, the d50 value refers to the particle diameter in micrometers at which 50 percent of the volume distribution of the particles are smaller than such value and the d90 value refers to the particle diameter in micrometers at which 90 percent of the volume distribution of the particles are smaller than such value.

A short description of series [2]: Thermodynamic stability of anhydrous polymorphic forms. The class given is physicochemical. The settings on record: among anhydrous Forms A1, A2, A3.
The target in another series is PDE4A1A (Homo sapiens, UniProt P27815). In words: Inhibition of PDE4A1A. The class given is biochemical. The note with it: compared to the (Ra) atropisomer and the unseparated compound.
Sequence of PDE4A1A (P27815 1-647 isoform P27815-4): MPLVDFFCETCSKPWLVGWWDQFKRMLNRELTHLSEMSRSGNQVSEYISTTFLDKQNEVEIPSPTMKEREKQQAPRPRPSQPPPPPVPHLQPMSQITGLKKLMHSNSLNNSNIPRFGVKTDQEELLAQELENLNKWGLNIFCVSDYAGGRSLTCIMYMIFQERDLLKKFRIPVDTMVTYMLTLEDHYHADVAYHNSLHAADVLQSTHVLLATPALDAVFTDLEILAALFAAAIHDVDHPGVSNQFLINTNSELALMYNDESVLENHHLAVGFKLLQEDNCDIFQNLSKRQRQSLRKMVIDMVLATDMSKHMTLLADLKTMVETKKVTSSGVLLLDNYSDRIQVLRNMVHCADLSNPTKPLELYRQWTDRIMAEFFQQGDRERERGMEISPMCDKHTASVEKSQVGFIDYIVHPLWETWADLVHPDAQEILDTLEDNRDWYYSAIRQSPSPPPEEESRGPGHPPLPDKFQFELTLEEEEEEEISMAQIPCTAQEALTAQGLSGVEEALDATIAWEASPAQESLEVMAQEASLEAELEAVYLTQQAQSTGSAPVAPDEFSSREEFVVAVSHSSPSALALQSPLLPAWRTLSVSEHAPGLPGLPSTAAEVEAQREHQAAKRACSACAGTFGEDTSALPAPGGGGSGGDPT
Series [3] in a line: Selectivity compared to the other atropisomer and the mixture. The settings on record: compared to the (Ra) atropisomer and the unseparated compound.
The next series relates to ATM pCHK2 pathway. In words: Inhibition of the ATM pCHK2 pathway. The note with it: compared to the (Ra) atropisomer and the unseparated compound. It counts as cell-based.
The target of a further series is PDE4D2 (Homo sapiens, UniProt Q08499). In words: Inhibition of PDE4D2. The class given is biochemical. The note with it: compared to the (Ra) atropisomer and the unseparated compound.
Sequence of PDE4D2 (Q08499 303-809 limits assumed): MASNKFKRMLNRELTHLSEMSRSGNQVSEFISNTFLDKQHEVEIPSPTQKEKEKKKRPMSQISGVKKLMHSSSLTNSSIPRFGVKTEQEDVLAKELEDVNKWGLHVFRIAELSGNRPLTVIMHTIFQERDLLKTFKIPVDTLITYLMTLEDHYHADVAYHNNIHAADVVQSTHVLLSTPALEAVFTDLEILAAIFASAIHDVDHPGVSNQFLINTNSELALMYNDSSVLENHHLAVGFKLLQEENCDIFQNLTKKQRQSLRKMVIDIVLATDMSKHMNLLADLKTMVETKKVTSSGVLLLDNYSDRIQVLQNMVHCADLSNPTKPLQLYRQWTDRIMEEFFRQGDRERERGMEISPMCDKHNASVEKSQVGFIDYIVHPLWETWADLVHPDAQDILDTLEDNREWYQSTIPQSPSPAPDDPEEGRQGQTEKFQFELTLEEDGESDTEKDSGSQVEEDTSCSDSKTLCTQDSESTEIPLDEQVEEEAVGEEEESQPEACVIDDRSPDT
Another series can be described thus: Microsomal clearance. It counts as in vitro ADME. The settings on record: compared to the (Ra) atropisomer and the unseparated compound.
For series [4], the target named is phosphodiesterase (PDE) 2A1 (Homo sapiens, UniProt O00408). In words: Inhibition of PDE2A1. It counts as biochemical. The settings on record: compared to the (Ra) atropisomer and the unseparated compound.
Sequence of phosphodiesterase (PDE) 2A1 (O00408 1-920 isoform O00408-2): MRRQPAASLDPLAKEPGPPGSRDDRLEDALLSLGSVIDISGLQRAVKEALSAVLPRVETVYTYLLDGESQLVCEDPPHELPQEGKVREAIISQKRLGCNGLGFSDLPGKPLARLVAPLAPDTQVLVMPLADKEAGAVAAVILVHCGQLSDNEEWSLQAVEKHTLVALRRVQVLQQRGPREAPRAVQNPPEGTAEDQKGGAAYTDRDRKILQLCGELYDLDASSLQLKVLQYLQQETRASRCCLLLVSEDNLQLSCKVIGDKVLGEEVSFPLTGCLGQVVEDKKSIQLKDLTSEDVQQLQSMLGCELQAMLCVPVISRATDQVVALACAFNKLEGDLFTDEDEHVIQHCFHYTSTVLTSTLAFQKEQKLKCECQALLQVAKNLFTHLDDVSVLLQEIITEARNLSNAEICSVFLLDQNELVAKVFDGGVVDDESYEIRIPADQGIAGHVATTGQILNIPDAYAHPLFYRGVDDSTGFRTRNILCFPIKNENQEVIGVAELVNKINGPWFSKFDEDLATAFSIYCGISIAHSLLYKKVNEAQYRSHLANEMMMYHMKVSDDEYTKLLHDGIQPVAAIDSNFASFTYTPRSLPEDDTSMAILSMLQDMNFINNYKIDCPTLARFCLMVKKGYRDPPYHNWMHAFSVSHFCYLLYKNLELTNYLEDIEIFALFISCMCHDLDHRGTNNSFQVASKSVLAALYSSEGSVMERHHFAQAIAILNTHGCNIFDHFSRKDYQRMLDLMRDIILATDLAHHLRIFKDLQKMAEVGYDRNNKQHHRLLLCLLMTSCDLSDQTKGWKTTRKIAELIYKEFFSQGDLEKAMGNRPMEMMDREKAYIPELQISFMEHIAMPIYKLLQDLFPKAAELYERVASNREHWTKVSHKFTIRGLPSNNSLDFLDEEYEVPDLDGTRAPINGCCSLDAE

With `COc1cc2ncc3c(c2cc1-c1cn(C)nc1C)n(-c1c(F)cncc1OC)c(=O)n3C` (atropisomer, axis not shown; (Sa)) [Compound 1 Anhydrous Form A2 OPT, 8-(1,3-Dimethyl-1H-pyrazol-4-yl)-1-(Sa)-(3-fluoro-5-methoxy-pyridin-4-yl)-7-methoxy-3-methyl-1,3-dihydro-imidazo[4,5-c]quinolin-2-one], in series [1], the Dv10 was found to be 19 µm, the Dv50 was found to be 64 µm and the Dv90 is 202 µm.
As for `COc1cc2ncc3c(c2cc1-c1cn(C)nc1C)n(-c1c(F)cncc1OC)c(=O)n3C` (atropisomer, axis not shown; (Sa)) [Compound 1 Anhydrous Form A2, 8-(1,3-Dimethyl-1H-pyrazol-4-yl)-1-(Sa)-(3-fluoro-5-methoxy-pyridin-4-yl)-7-methoxy-3-methyl-1,3-dihydro-imidazo[4,5-c]quinolin-2-one], in series [1], the Dv10 amounted to 9 µm, the Dv50 stood at 63 µm and the Dv90 worked out at 599 µm. In addition, the “Thermodynamic stability of the solid form” value in series [2] is listed as “thermodynamically most stable anhydrous form”.
Turning to `COc1cc2ncc3c(c2cc1-c1cn(C)nc1C)n(-c1c(F)cncc1OC)c(=O)n3C` (atropisomer, axis not shown; (Sa)) [Compound 1, 8-(1,3-Dimethyl-1H-pyrazol-4-yl)-1-(Sa)-(3-fluoro-5-methoxy-pyridin-4-yl)-7-methoxy-3-methyl-1,3-dihydro-imidazo[4,5-c]quinolin-2-one], the “Inhibition of PDE4A1A” value at PDE4A1A was “lowest inhibition”. Moreover, the Selectivity entry in series [3] is “better selectivity”. In the series with ATM pCHK2 pathway, the “Inhibition of the ATM pCHK2 pathway” value is “at lower concentrations”. For the same molecule, at PDE4D2, the “Inhibition of PDE4D2” value is listed as “lowest inhibition”. In “Microsomal clearance”, the Microsomal clearance values result is on record as “best microsomal clearance values”. Besides, the “Inhibition of phosphodiesterase (PDE) 2A1” value in series [4] is on record as “lowest inhibition”.

The values above are taken from patent publication US20230330027A1, “PHARMACEUTICAL PREPARATION” (MERCK PATENT GMBH, priority 2020, published 2023).
